Experimental data published in article PMC4042160, “In silico, in vitro and cellular analysis with a kinome-wide inhibitor panel correlates cellular LRRK2 dephosphorylation to inhibitor activity on LRRK2” (Frontiers in Molecular Neuroscience, 2014).

Experiments:
[1] = biological target: T1, GST-tagged truncated LRRK2 containing residues 970 to 2527 (Homo sapiens, UniProt Q5S007); assay: In vitro LRRKtide peptide-substrate kinase assay, single dose testing (10 μM); format: biochemical; settings: for % LRRKtide phosphorylation relative to solvent: LRRKtide assay @ 10 μM inhibitor, GST-LRRK2 970-2527, 10 μM ATP, mean, N = 3, solvent control = 100%
T1 construct: GST-tagged truncated LRRK2 containing residues 970 to 2527 (Life Technologies); purchased Life Technologies
T1 sequence (Q5S007 970-2527): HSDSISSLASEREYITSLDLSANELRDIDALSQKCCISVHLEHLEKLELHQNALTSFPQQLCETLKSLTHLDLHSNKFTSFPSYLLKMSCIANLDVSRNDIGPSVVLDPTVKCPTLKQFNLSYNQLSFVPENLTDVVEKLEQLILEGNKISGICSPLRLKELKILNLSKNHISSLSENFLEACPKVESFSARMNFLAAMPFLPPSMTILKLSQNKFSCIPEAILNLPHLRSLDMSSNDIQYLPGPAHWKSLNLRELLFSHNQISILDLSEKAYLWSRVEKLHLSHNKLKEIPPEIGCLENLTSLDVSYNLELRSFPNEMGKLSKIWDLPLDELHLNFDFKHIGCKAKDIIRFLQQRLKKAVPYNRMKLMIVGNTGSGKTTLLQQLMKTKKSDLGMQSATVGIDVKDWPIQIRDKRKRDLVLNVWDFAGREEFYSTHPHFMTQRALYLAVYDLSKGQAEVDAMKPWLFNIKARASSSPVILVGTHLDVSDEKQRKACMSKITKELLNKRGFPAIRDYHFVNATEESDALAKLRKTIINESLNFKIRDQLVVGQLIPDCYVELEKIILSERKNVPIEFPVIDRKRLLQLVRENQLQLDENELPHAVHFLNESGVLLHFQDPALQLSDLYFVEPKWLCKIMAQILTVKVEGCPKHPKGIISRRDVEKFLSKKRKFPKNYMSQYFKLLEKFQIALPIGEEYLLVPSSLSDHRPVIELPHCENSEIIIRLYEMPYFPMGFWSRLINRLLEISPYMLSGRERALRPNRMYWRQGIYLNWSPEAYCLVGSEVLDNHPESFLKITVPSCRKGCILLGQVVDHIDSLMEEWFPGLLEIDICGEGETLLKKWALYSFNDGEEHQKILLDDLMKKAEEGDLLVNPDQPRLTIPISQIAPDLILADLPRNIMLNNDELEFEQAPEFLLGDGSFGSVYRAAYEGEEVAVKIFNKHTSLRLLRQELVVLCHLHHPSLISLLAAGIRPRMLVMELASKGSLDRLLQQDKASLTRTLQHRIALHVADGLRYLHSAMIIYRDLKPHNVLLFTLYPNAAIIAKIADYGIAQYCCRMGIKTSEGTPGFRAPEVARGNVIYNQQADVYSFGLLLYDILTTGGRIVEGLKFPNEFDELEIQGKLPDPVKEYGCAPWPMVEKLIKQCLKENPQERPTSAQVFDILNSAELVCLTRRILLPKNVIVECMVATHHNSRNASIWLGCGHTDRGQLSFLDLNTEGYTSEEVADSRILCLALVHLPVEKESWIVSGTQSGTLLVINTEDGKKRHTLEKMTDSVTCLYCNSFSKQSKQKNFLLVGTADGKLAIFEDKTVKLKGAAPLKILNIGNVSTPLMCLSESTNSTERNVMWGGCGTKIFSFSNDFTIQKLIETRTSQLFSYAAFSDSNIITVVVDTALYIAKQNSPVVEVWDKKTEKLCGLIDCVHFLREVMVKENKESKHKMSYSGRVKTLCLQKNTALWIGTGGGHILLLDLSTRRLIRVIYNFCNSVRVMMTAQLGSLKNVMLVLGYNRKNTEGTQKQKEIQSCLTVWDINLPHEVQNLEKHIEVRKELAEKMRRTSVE

LRRK2 phospho-Ser935 = biological target: T2, LRRK2 phospho-Ser935 (Homo sapiens, UniProt Q5S007); assay: Cellular LRRK2 phosphoserine 935 dephosphorylation spotblot assay in SH-SY5Y cells stably expressing 3xFlag-LRRK2; format: cell-based; settings: for Phosphorylation level relative to solvent (%) (cellular pS935 assay): @ 5 μM for 2 h, SH-SY5Y stably expressing LRRK2, pS935/total LRRK2
T2 construct: expressed in transfected cells
T2 sequence (Q5S007 whole entry): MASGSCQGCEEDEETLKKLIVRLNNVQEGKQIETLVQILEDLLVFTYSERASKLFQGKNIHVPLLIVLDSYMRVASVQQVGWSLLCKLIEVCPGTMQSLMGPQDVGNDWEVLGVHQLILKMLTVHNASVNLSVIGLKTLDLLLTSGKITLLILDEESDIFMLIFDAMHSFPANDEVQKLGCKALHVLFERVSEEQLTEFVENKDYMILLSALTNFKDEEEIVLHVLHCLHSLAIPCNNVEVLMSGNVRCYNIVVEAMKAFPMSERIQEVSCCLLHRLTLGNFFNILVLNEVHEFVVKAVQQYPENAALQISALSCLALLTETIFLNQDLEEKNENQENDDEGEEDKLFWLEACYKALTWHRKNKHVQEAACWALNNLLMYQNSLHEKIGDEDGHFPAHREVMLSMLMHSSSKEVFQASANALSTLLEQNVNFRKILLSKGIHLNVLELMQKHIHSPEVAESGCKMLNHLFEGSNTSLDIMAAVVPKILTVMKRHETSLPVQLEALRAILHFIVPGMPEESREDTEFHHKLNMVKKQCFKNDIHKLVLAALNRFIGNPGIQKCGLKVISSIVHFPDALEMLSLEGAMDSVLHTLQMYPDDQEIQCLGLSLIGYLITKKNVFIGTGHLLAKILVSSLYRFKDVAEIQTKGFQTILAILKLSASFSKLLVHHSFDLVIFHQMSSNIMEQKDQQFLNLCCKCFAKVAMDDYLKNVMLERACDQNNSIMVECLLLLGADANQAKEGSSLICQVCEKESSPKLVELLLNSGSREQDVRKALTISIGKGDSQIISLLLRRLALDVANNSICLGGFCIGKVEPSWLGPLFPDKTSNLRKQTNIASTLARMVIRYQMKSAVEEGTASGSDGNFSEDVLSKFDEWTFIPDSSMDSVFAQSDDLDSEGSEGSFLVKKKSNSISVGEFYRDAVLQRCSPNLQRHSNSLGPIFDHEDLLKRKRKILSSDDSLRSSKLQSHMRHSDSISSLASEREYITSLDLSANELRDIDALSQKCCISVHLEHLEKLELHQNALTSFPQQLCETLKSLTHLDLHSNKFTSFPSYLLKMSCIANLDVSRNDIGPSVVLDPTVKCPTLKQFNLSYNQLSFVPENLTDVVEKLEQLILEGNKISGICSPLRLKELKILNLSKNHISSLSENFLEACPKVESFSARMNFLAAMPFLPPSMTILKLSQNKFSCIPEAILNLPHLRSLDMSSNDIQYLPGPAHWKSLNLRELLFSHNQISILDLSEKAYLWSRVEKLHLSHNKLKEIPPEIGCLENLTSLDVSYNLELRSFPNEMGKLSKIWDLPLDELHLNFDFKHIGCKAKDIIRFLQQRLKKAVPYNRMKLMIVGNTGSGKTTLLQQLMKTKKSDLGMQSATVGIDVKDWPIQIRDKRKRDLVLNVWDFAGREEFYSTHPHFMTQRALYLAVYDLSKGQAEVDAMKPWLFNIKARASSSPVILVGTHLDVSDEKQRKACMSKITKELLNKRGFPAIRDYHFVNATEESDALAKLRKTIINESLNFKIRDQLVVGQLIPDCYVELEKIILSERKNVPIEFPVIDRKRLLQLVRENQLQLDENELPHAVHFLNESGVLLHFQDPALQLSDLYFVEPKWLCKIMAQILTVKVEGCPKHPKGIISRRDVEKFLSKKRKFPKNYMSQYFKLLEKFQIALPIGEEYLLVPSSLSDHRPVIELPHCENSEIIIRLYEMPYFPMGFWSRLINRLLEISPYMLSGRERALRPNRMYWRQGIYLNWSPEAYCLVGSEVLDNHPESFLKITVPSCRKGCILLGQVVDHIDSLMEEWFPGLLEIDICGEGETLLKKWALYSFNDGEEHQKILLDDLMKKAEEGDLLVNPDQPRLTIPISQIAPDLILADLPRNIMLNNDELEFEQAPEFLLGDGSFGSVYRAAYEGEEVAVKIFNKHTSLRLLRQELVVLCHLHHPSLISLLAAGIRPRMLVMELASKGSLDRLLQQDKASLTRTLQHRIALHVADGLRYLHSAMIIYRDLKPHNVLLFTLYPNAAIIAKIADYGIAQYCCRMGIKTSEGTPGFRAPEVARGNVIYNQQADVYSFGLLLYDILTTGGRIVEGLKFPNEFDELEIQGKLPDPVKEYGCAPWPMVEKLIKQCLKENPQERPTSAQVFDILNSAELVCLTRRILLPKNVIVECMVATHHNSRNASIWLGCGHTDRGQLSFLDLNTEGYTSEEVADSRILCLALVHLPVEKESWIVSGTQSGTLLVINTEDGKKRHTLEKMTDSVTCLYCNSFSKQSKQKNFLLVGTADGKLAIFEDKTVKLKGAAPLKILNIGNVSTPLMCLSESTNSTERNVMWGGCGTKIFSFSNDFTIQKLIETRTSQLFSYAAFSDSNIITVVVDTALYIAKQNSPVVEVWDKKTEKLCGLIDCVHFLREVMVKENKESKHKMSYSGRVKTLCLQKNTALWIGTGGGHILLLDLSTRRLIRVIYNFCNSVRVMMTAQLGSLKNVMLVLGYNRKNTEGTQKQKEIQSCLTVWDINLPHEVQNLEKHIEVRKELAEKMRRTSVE

Row | Molecule | % LRRKtide phosphorylation relative to solvent [1] | Phosphorylation level relative to solvent (%) (cellular pS935 assay) (LRRK2 phospho-Ser935) | activity on LRRK2 kinase activity in vitro (in words) ([1]; no activity at 10 μM) | dephosphorylation of LRRK2 (Ser935) (LRRK2 phospho-Ser935; 5 μM, 2 h, SH-SY5Y)
1 | O=c1cc(N2CCOCC2)oc2c(-c3ccccc3)cccc12 [LY 294002] | 90.73% | 74.17% | – | –
2 | O=c1cc(N2CCNCC2)oc2c(-c3ccccc3)cccc12 [LY 303511] | 107.82% | 47.60% | inactive | ~ 50%
3 | Nc1ncnc2c1c(-c1ccc(Oc3ccccc3)cc1)cn2C1CCCC1 [Lck inhibitor] | 15.36% | 61.54% | – | –
4 | N#C/C(=C(/N)Sc1ccc(N)cc1)c1ccccc1C(F)(F)F [MEK 1/2 inhibitor] | 61.26% | 117.92% | – | –
5 | O=C1C(Cl)=C(N2C(=O)CCC2=O)C(=O)c2ccccc21 [MEK inhibitor II] | 21.13% | 108.79% | – | –
6 | N#C/C(=C(/N)SC1C=CC=CC1)c1cccc(C(O)c2ccncc2)c1 (stereo not shown) [MEK inhibitor I] | 124.71% | 100.55% | – | –
7 | O=C(CCCc1ccc(-c2ccccc2F)cc1)Nc1ccc(O)cc1 [MK2a inhibitor] | 123.21% | 60.73% | – | –
8 | Nc1ncnc2n[nH]c(Nc3ccc(F)cc3)c12 [MNK1 inhibitor] | 12.59% | 70.32% | – | –
9 | COc1cccc(-c2cc(=O)c3ccccc3o2)c1N [PD98059] | 92.53% | 106.55% | – | –
10 | CNc1cc2c(Nc3cccc(Br)c3)ncnc2cn1 [PD 158780] | 6.06% | 80.85% | – | –
11 | COc1cc2nccc(Oc3ccc(NC(=S)NC(=O)c4ccccc4C)cc3)c2cc1OC [PDGF RTK inhibitor] | 34.30% | 77.68% | – | –
12 | CCCC(=O)Oc1ccc2[nH]c(C(=O)c3cc4ccccc4[nH]3)cc2c1 [PDGF receptor tyrosine kinase inhibitor II] | 93.77% | 65.41% | – | –
13 | COc1cc2c(cc1OC)-c1[nH]nc(Nc3cccc(F)c3)c1C2 [PDGF receptor tyrosine kinase inhibitor IV] | 23.12% | 57.30% | – | –
14 | O=C1NC(=O)/C(=C/c2ccc3nccnc3c2)S1 [PI 3-Kg inhibitor] | 62.51% | 79.50% | – | –
15 | Oc1cccc(-c2nc(N3CCOCC3)c3oc4ncccc4c3n2)c1 [PI-103] | 88.58% | 71.34% | – | –
16 | O=C1NC(=O)C(c2cn(CCCn3ccnc3)c3ccccc23)=C1Nc1ccccc1 [PKCb inhibitor] | 3.56% | 86.12% | – | –
17 | O=C1NC(=O)c2cc(Nc3ccc(F)cc3)c(Nc3ccc(F)cc3)cc21 [PKCbII/EGFR inhibitor] | 67.41% | 56.68% | – | –
18 | O=C1Nc2ccc(Cl)cc2/C1=C/c1cc(Cl)c(O)c(Cl)c1 [PKR inhibitor, negative control] | 1.07% | 72.69% | – | –
19 | CC(C)(C)n1nc(Cc2cccc3ccccc23)c2c(N)ncnc21 [PP1 analog II, 1NM-PP1, 1NM-PP1] | 44.14% | 68.59% | – | –
20 | Nc1ncnc2c1cnn2-c1ccccc1 [PP3] | 68.38% | 84.67% | – | –
21 | C[C@@H](N)[C@H]1CC[C@H](C(=O)Nc2ccncc2)CC1 [ROCK inhibitor, Y-27632, Y-27632] | 10.36% | 69.28% | – | –
22 | CO[C@H]1C[C@@H]2CC[C@@H](C)[C@@](O)(O2)C(=O)C(=O)N2CCCC[C@H]2C(=O)O[C@H]([C@H](C)C[C@@H]2CC[C@@H](O)[C@H](OC)C2)CC(=O)[C@H](C)/C=C(\C)[C@@H](O)[C@@H](OC)C(=O)[C@H](C)C[C@H](C)/C=C/C=C/C=C/1C [Rapamycin] | 101.20% | 65.24% | – | –

Row | Molecule | % LRRKtide phosphorylation relative to solvent [1] | Phosphorylation level relative to solvent (%) (cellular pS935 assay) (LRRK2 phospho-Ser935) | activity on LRRK2 kinase activity in vitro (in words) ([1]; no activity at 10 μM) | dephosphorylation of LRRK2 (Ser935) (LRRK2 phospho-Ser935; 5 μM, 2 h, SH-SY5Y)
23 | c1ccc2c(-c3ccncc3)c[nH]c2c1 [Rho kinase inhibitor III, rockout, rockout] | 32.15% | 63.04% | – | –
24 | Cc1cncc2cccc(S(=O)(=O)N3CCCN(C(=O)CN)C[C@@H]3C)c12 [Rho kinase inhibitor IV] | 10.29% | 59.98% | – | –
25 | Oc1ccc(-c2nc(-c3ccncc3)c(-c3ccc(F)cc3)[nH]2)cc1 [SB 202190] | 45.07% | 88.12% | – | –
26 | CCc1[nH]c(-c2ccc(OC)cc2)nc1-c1ccncc1 [SB 202474] | 47.64% | 112.24% | – | –
27 | C[S+]([O-])c1ccc(-c2nc(-c3ccncc3)c(-c3ccc(F)cc3)[nH]2)cc1 (stereo not shown) [SB 203580] | 100.48% | 90.32% | – | –
28 | O=C1NC(=O)c2c1c1c3ccccc3n3c1c1c2c2ccccc2n1C1CCC3O1 [SB 218078] | 1.94% | 89.51% | – | –
29 | Nc1nccc(-c2c(-c3ccc(F)cc3)ncn2C2CCNCC2)n1 [SB 220025] | 73.68% | 70.97% | – | –
30 | Cc1nc(-c2ccccc2)c(-c2ccncc2)o1 [SC-68376] | 48.07% | 104.03% | – | –
31 | Fc1ccc(-c2nc3n(c2-c2ccncc2)CCS3)cc1 [SKF-86002] | 94.81% | 121.09% | – | –
32 | O=C(O)c1ccc2c3c1cccc3c(=O)n1c3ccccc3nc21 [STO-609] | 15.01% | 121.51% | – | –
33 | Oc1ccc(Nc2nc(-c3ccc(Cl)cc3)cs2)cc1 [Sphingosine kinase inhibitor] | 106.21% | 144.00% | – | –
34 | O=[N+]([O-])/C=C/c1ccc2c(c1)OCO2 [Syk inhibitor III] | 82.95% | 68.01% | – | –
35 | NCCNc1ncc(C(N)=O)c(Nc2cccc(C(F)(F)F)c2)n1 [Syk inhibitor II] | 3.50% | 76.71% | – | –
36 | Cc1cccc(-c2[nH]c(C(C)(C)C)nc2-c2ccc3c(c2)OCO3)n1 [TGF-b RI inhibitor III] | 104.37% | 57.95% | – | –
37 | c1ccc(-c2[nH]ncc2-c2ccnc3ccccc23)nc1 [TGF-b RI kinase inhibitor] | 47.94% | 71.73% | – | –
38 | N#Cc1cnc2cnc(NCc3cccnc3)cc2c1Nc1ccc(F)c(Cl)c1 [Tpl2 kinase inhibitor] | 55.04% | 102.54% | – | –
39 | COc1ccc(-c2cnc3c(-c4ccsc4)cnn3c2)cc1 [VEGF receptor 2 kinase inhibitor IV] | 77.83% | 48.48% | – | –
40 | O=C(Nc1ccc(Cl)cc1)c1ccccc1NCc1ccncc1 [VEGF receptor tyrosine kinase inhibitor II] | 91.34% | 65.97% | – | –
41 | CSc1nc(-c2ccnc(NC(C)c3ccccc3)c2)c(-c2ccc(F)cc2)[nH]1 (stereo not shown) [p38 MAP kinase inhibitor III] | 112.29% | 83.74% | – | –
42 | O=c1c(-c2ccc(F)cc2)c(-c2ccncc2)[nH]n1-c1ccc(Cl)cc1 [p38 MAP kinase inhibitor] | 132.68% | 93.68% | – | –
43 | GTP-14564 | 18.03% | 71.63% | – | –
